{"source": "patent US20250025442A1", "about": "“BCAA-Lowering Compounds for Prevention and/or Treatment of Alzheimer's Disease and Related Disorders” (Texas Tech University System, priority 2020, published 2025)", "key": {"5xFAD mice": {"tested_on": "5xFAD mice", "experiment": "BT2 daily ip injection for one month in 5xFAD mice", "format": "in vivo", "text": "These transgenic mice develop amyloid plaques and neuroinflammation at as early as 1.5-2 months of age^7, thus allowing the inventors to investigate the role of BCAAs in AD-related brain pathology when they are young. […] Next, the inventors examined amyloid and Tau pathology in the cortex."}, "BCKDH kinase": {"tested_on": "BCKDH kinase", "details": "cited from earlier work"}, "plasma BCAAs": {"tested_on": "plasma BCAAs", "details": "mice; cited from earlier work"}, "[1]": {"details": "in hepatocytes; cited from earlier work"}, "[2]": {"details": "CD-1 mice, in vivo pharmacokinetics study; cited from earlier work"}}}
{"compound": "O=C(O)c1sc2cc(Cl)ccc2c1Cl", "note": "[BT2, 3,6-dichlorobenzo[b]thiophene-2-carboxylic acid]", "values": [{"measurement": "increase of tyrosine hydroxylase (TH) protein level", "setting": "5xFAD mice; 5xFAD mice, p=0.07", "result": "~400", "unit": "%"}, {"measurement": "blood glucose", "setting": "5xFAD mice; BT2-treated vs vehicle-treated 5xFAD mice", "result": "markedly decrease"}, {"measurement": "Aβ-42 level", "setting": "5xFAD mice; cortex, 5xFAD mice", "result": "completely rescued"}, {"measurement": "elevated Aβ-degrading enzyme IDE", "setting": "5xFAD mice; cortex, 5xFAD mice", "result": 70, "unit": "%"}, {"measurement": "increase of DA", "setting": "5xFAD mice; cortex, BT2-treated 5xFAD mice", "result": 180, "unit": "%"}, {"measurement": "increase of DOPAC", "setting": "5xFAD mice; cortex, BT2-treated 5xFAD mice", "result": 300, "unit": "%"}, {"measurement": "GSK3β", "setting": "5xFAD mice; cortex, after BT2 treatment", "result": "significantly reduced"}, {"measurement": "BACE1 (β-secretase)", "setting": "5xFAD mice; hippocampus, 5xFAD mice", "result": "markedly lowered"}, {"measurement": "NE level", "setting": "5xFAD mice; hippocampus, 5xFAD mice", "result": "fully restored"}, {"measurement": "mRNA of NF-κB (inflammation)", "setting": "5xFAD mice; hippocampus, 5xFAD mice", "result": "decreased"}, {"measurement": "mRNA of PERK (ER stress)", "setting": "5xFAD mice; hippocampus, 5xFAD mice", "result": "decreased"}, {"measurement": "higher 5-HT", "setting": "5xFAD mice; hippocampus, after BT2 treatment, p<0.05", "result": 50, "unit": "%"}, {"measurement": "higher DA", "setting": "5xFAD mice; hippocampus, after BT2 treatment, p=0.08", "result": 40, "unit": "%"}, {"measurement": "inhibit BCKDH kinase", "setting": "BCKDH kinase", "result": "effectively inhibit"}, {"measurement": "plasma BCAAs", "setting": "plasma BCAAs", "result": "lowering plasma BCAAs"}]}
{"compound": "(S)-α-chloro-phenylpropionic acid [(S)-CPP]", "values": [{"measurement": "inhibit BCKDH kinase", "setting": "BCKDH kinase", "result": "effectively inhibit"}, {"measurement": "plasma BCAAs", "setting": "plasma BCAAs", "result": "lowering plasma BCAAs"}, {"measurement": "Half-life", "setting": "[1]", "result": "~7", "unit": "h"}, {"measurement": "clearance rate", "setting": "[2]", "result": 0.113, "unit": "mL/min"}]}
